For this series, the system named is CCRIS mutagenicity, Ames/micronucleus/aberration tests. In words: CCRIS mutagenicity studies.
[1] abbreviates: Test System: AMES SALMONELLA TYPHIMURIUM, Strain/Indicator: TA97, Metabolic Activation: HAMSTER, LIVER, S-9, AROCLOR 1254 (10 OR 30%), Method: PREINCUBATION
[2] abbreviates: Test System: AMES SALMONELLA TYPHIMURIUM, Strain/Indicator: TA97, Metabolic Activation: NONE, Method: PREINCUBATION
Where [3] appears, read: Test System: AMES SALMONELLA TYPHIMURIUM, Strain/Indicator: TA97, Metabolic Activation: RAT, LIVER, S-9, AROCLOR 1254 (10 OR 30%), Method: PREINCUBATION
Setting [4] is: Test System: AMES SALMONELLA TYPHIMURIUM, Strain/Indicator: TA98, Metabolic Activation: NONE, Method: PREINCUBATION
[5] abbreviates: Test System: AMES SALMONELLA TYPHIMURIUM, Strain/Indicator: TA100, Metabolic Activation: NONE, Method: PREINCUBATION
Where [6] appears, read: Test System: AMES SALMONELLA TYPHIMURIUM, Strain/Indicator: TA1535, Metabolic Activation: HAMSTER, LIVER, S-9, AROCLOR 1254 (10 OR 30%), Method: PREINCUBATION
The mark [7] stands for this setting: Test System: AMES SALMONELLA TYPHIMURIUM, Strain/Indicator: TA1535, Metabolic Activation: NONE, Method: PREINCUBATION
Where [8] appears, read: Test System: AMES SALMONELLA TYPHIMURIUM, Strain/Indicator: TA1535, Metabolic Activation: RAT, LIVER, S-9, AROCLOR 1254 (10 OR 30%), Method: PREINCUBATION

Structures are written as SMILES. Calls of active or inactive are those of the source. How the calls were made is not given here.

`NCCS(=O)(=O)O`: the mutagenic call under setting [1] was “inactive; negative”; the mutagenic call under setting [2] is “inactive; negative”; the mutagenic call under setting [3] was “inactive; negative”; the mutagenic call (Test System: AMES SALMONELLA TYPHIMURIUM, Strain/Indicator: TA98, Metabolic Activation: HAMSTER, LIVER, S-9, AROCLOR 1254 (10 OR 30%), Method: PREINCUBATION) was “inactive; negative”; the mutagenic call under setting [4] is “inactive; negative”; the mutagenic call (Test System: AMES SALMONELLA TYPHIMURIUM, Strain/Indicator: TA98, Metabolic Activation: RAT, LIVER, S-9, AROCLOR 1254 (10 OR 30%), Method: PREINCUBATION) was “inactive; negative”. The mutagenic call (Test System: AMES SALMONELLA TYPHIMURIUM, Strain/Indicator: TA100, Metabolic Activation: HAMSTER, LIVER, S-9, AROCLOR 1254 (10 OR 30%), Method: PREINCUBATION) is “inactive; negative”; the mutagenic call under setting [5] was “inactive; negative”; the mutagenic call (Test System: AMES SALMONELLA TYPHIMURIUM, Strain/Indicator: TA100, Metabolic Activation: RAT, LIVER, S-9, AROCLOR 1254 (10 OR 30%), Method: PREINCUBATION) was “inactive; negative”; the mutagenic call under setting [6] is “inactive; negative”; the mutagenic call under setting [7] was “inactive; negative”; the mutagenic call under setting [8] is “inactive; negative”.
`CCCN(CCC)C(=O)SCC`: the mutagenic call is “inactive; negative” (End Point: In vitro chromosomal aberrations, Test System: Chinese hamster ovary (CHO) cells, Metabolic Activation: None); “inactive; negative” (End Point: In vitro chromosomal aberrations, Test System: Chinese hamster ovary (CHO) cells, Metabolic Activation: Rat, Liver, S-9); “active; positive (structure and ploidy)” (End Point: In vitro chromosomal aberrations, Test System: Mouse lymphoma cells, Strain/Indicator: L5178Y (tk+/tk-), Metabolic Activation: None); “inactive; negative” (End Point: In vitro chromosomal aberrations, Test System: Mouse lymphoma cells, Strain/Indicator: L5178Y (tk+/tk-), Metabolic Activation: S-9); “inactive; negative” under setting [1]; “inactive; negative” under setting [2]. Besides, the mutagenic call was “inactive; negative” under setting [3]; “inactive; negative” (Test System: AMES SALMONELLA TYPHIMURIUM, Strain/Indicator: TA98, Metabolic Activation: HAMSTER, LIVER, S-9, AROCLOR 1254 (10%), Method: PREINCUBATION); “inactive; negative” (Test System: AMES SALMONELLA TYPHIMURIUM, Strain/Indicator: TA98, Metabolic Activation: HAMSTER, LIVER, S-9, AROCLOR 1254 (30%), Method: PREINCUBATION); “inactive; negative” under setting [4]; “inactive; negative” (Test System: AMES SALMONELLA TYPHIMURIUM, Strain/Indicator: TA98, Metabolic Activation: RAT, LIVER, S-9, AROCLOR 1254 (10%), Method: PREINCUBATION); “inactive; negative” (Test System: AMES SALMONELLA TYPHIMURIUM, Strain/Indicator: TA98, Metabolic Activation: RAT, LIVER, S-9, AROCLOR 1254 (30%), Method: PREINCUBATION). Moreover, the mutagenic call runs as follows: (Test System: AMES SALMONELLA TYPHIMURIUM, Strain/Indicator: TA100, Metabolic Activation: HAMSTER, LIVER, S-9, AROCLOR 1254 (10%), Method: PREINCUBATION) “inactive; negative”; (Test System: AMES SALMONELLA TYPHIMURIUM, Strain/Indicator: TA100, Metabolic Activation: HAMSTER, LIVER, S-9, AROCLOR 1254 (30%), Method: PREINCUBATION) “inactive; negative”; under setting [5], “inactive; negative”; (Test System: AMES SALMONELLA TYPHIMURIUM, Strain/Indicator: TA100, Metabolic Activation: RAT, LIVER, S-9, AROCLOR 1254 (10%), Method: PREINCUBATION) “inactive; negative”; (Test System: AMES SALMONELLA TYPHIMURIUM, Strain/Indicator: TA100, Metabolic Activation: RAT, LIVER, S-9, AROCLOR 1254 (30%), Method: PREINCUBATION) “inactive; negative”; under setting [6], “inactive; negative”. Besides, the mutagenic call is, setting by setting: under setting [7], “inactive; negative”; under setting [8], “inactive; negative”; (Test System: AMES SALMONELLA TYPHIMURIUM, Strain/Indicator: TA1537, Metabolic Activation: HAMSTER, LIVER, S-9, AROCLOR 1254 (10 OR 30%), Method: PREINCUBATION) “inactive; negative”; (Test System: AMES SALMONELLA TYPHIMURIUM, Strain/Indicator: TA1537, Metabolic Activation: NONE, Method: PREINCUBATION) “inactive; negative”; (Test System: AMES SALMONELLA TYPHIMURIUM, Strain/Indicator: TA1537, Metabolic Activation: RAT, LIVER, S-9, AROCLOR 1254 (10 OR 30%), Method: PREINCUBATION) “inactive; negative”; (Test System: Ames Salmonella typhimurium, Strain/Indicator: TA98, Metabolic Activation: None, Method: Plate incorporation amd preincubation (2 trials)) “inactive; negative. (cytotoxicity at doses of 1000 ug/plate and above.)”. For the same compound, the mutagenic call (Test System: Ames Salmonella typhimurium, Strain/Indicator: TA98, Metabolic Activation: Rat, Liver, S-9, Aroclor, Method: Plate incorporation) was “inactive; negative. (cytotoxicity at doses of 1000 ug/plate and above.)”; the mutagenic call (Test System: Ames Salmonella typhimurium, Strain/Indicator: TA100, Metabolic Activation: None, Method: Plate incorporation amd preincubation (2 trials)) is “inactive; negative. (cytotoxicity at doses of 1000 ug/plate and above.)”; the mutagenic call (Test System: Ames Salmonella typhimurium, Strain/Indicator: TA100, Metabolic Activation: Rat, Liver, S-9, Aroclor, Method: Plate incorporation) is “inactive; negative. (cytotoxicity at doses of 1000 ug/plate and above.)”; the mutagenic call (Test System: Ames Salmonella typhimurium, Strain/Indicator: TA1535, Metabolic Activation: None, Method: Plate incorporation amd preincubation (2 trials)) was “inactive; negative. (cytotoxicity at doses of 1000 ug/plate and above.)”; the mutagenic call (Test System: Ames Salmonella typhimurium, Strain/Indicator: TA1535, Metabolic Activation: Rat, Liver, S-9, Aroclor, Method: Plate incorporation) is “inactive; negative. (cytotoxicity at doses of 1000 ug/plate and above.)”; the mutagenic call (Test System: Ames Salmonella typhimurium, Strain/Indicator: TA1537, Metabolic Activation: None, Method: Plate incorporation amd preincubation (2 trials)) is “inactive; negative. (cytotoxicity at doses of 1000 ug/plate and above.)”. In addition, the mutagenic call (Test System: Ames Salmonella typhimurium, Strain/Indicator: TA1537, Metabolic Activation: Rat, Liver, S-9, Aroclor, Method: Plate incorporation) was “inactive; negative. (cytotoxicity at doses of 1000 ug/plate and above.)”; the mutagenic call (Test System: E. coli, Strain/Indicator: WP2P/WP2P uvrA, Metabolic Activation: None, Method: Plate incorporation amd preincubation (2 trials)) was “inactive; negative. (cytotoxicity at doses of 1000 ug/plate and above.)”; the mutagenic call (Test System: E. coli, Strain/Indicator: WP2P/WP2P uvrA, Metabolic Activation: Rat, Liver, S-9, Aroclor, Method: Plate incorporation) is “inactive; negative. (cytotoxicity at doses of 1000 ug/plate and above.)”; the mutagenic call (Test System: Mouse lymphoma cells, Strain/Indicator: L5178Y (tk+/tk-), Metabolic Activation: None, Method: Not given by California Department of Pesticides Regulation) is “active; positive”; the mutagenic call (Test System: Mouse lymphoma cells, Strain/Indicator: L5178Y (tk+/tk-), Metabolic Activation: Rat, Liver, S-9, Method: Not given by California Department of Pesticides Regulation) is “active; positive”; the mutagenic call (Test System: UDS primary rat hepatocytes, Strain/Indicator: Thymidine incorporation, Method: Liquid scintillation counting) was “inactive; negative”.
Consider `COC(=O)CN(CC(=O)OC)C1C[C@H]1N(CC(=O)OC)CC(=O)OC` (stereo partly specified), for which the mutagenic call (Test System: CHINESE HAMSTER V-79, Strain/Indicator: V-79/OUABAIN, Metabolic Activation: NONE, Method: STANDARD PLATE) was “active; positive”.
In the case of `Cc1cc2c(c3cc4ccccc4cc13)C=C[C@H](O)[C@H]2O`, the mutagenic call (Test System: AMES SALMONELLA TYPHIMURIUM, Strain/Indicator: TA100, Metabolic Activation: RAT, LIVER, S-9, AROCLOR 1254, Method: PREINCUBATION) was “active; positive”.
For the compound `CC(=O)Oc1ccc(CO)cc1`, the mutagenic call (Test System: AMES SALMONELLA TYPHIMURIUM, Strain/Indicator: TA100, Metabolic Activation: NONE, Method: STANDARD PLATE) was “inactive; negative”.

Source of the values: PubChem BioAssay AID1259407 (Chemical Carcinogenesis Research Information System (CCRIS), 2018).
